Assay results taken from PubChem BioAssay (NCI).
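GI50 marks 50% less growth. TGI: concentration producing complete growth inhibition.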

What was measured:
Assay in all cases: NCI tumour cell line growth inhibition, 384-well format
[1] = tested on: MDA-MB-468 breast
[2] = tested on: OVCAR-3 ovarian
[3] = tested on: MDA-MB-435 melanoma
[4] = tested on: K-562 leukemia
[5] = tested on: MALME-3M melanoma
[6] = tested on: NCI-H522 lung
[7] = tested on: HOP-62 NSCLC
[8] = tested on: PC-3 prostate
[9] = tested on: SK-MEL-5 melanoma
[10] = tested on: SNB-75 CNS
[11] = tested on: DU-145 prostate
[12] = tested on: HS 578T breast
[13] = tested on: HCC-2998 colon
[14] = tested on: CCRF-CEM leukemia
[15] = tested on: HCT-116 colon
[16] = tested on: MDA-MB-231 breast
[17] = tested on: HCT-15 colon
[18] = tested on: SK-MEL-28 melanoma
[19] = tested on: A498 renal
[20] = tested on: HT29 colon
[21] = tested on: RXF 393 renal
[22] = tested on: A549 NSCLC
[23] = tested on: U251 glioblastoma
[24] = tested on: SF-539 CNS
[25] = tested on: ACHN renal
[26] = tested on: KM12 colon
[27] = tested on: SF-268 CNS
[28] = tested on: OVCAR-8 ovarian
[29] = tested on: RPMI-8226 leukemia
[30] = tested on: T-47D breast
[31] = tested on: SW-620 colon
[32] = tested on: NCI-H226 lung
[33] = tested on: MCF7 breast
[34] = tested on: NCI-H23 lung
[35] = tested on: TK-10 renal
[36] = tested on: MOLT-4 leukemia
[37] = tested on: EKVX NSCLC
[38] = tested on: CAKI-1 renal
[39] = tested on: COLO 205 colon
[40] = tested on: SNB-19 CNS
[41] = tested on: LOX IMVI melanoma
[42] = tested on: IGROV1 ovarian
[43] = tested on: HL-60(TB) leukemia
[44] = tested on: BT-549 breast
[45] = tested on: OVCAR-5 ovarian
[46] = tested on: NCI-H322M lung
[47] = tested on: NCI-H460 NSCLC
[48] = tested on: SF-295 CNS
[49] = tested on: SK-OV-3 ovarian
[50] = tested on: SN12C renal
[51] = tested on: OVCAR-4 ovarian
[52] = tested on: UACC-257 melanoma
[53] = tested on: SR leukemia
[54] = tested on: NCI/ADR-RES ovarian
[55] = tested on: 786-0 renal
[56] = tested on: M14 melanoma
[57] = tested on: HOP-92 NSCLC
[58] = tested on: UO-31 renal

Compound COc1cccc2cc(-c3nc(C4CCC(C(=O)O)CC4)n4ncnc(N)c34)[nH]c12 (stereo unspecified) has a GI50 [1] of 0.21 µM, a TGI [1] of 1.52 µM and a GI50 [2] of 0.442 µM. For the same compound, the TGI [2] was 11.4 µM, the GI50 [3] was 2.39 µM and the TGI [3] was 11.4 µM. The GI50 [4] was 2.61 µM, the TGI [4] was 38 µM and the GI50 [5] was 0.19 µM. It also gave a TGI [5] of 0.878 µM, a GI50 [6] of 0.4 µM and a TGI [6] greater than 100 µM. The GI50 [7] was 1.11 µM, the TGI [7] was 5.42 µM and the GI50 [8] was 0.56 µM. For the same compound, the TGI [8] was 5.83 µM, the GI50 [9] was 0.518 µM and the TGI [9] was 2.18 µM. For the same compound, the GI50 [10] was 0.382 µM, the TGI [10] was 2.81 µM and the GI50 [11] was 3.71 µM. For the same compound, the TGI [11] was greater than 100 µM, the GI50 [12] was 0.302 µM and the TGI [12] was 1.59 µM. The GI50 [13] was 5.76 µM, the TGI [13] was 44.1 µM and the GI50 [14] was 0.738 µM. For the same compound, the TGI [14] was 10.5 µM, the GI50 [15] was 4.13 µM and the TGI [15] was 62.4 µM. For the same compound, the GI50 [16] was 0.811 µM, the TGI [16] was greater than 100 µM and the GI50 [17] was 1.36 µM. It also gave a TGI [17] of 57 µM, a GI50 [18] of 0.453 µM and a TGI [18] of 7.41 µM. It also gave a GI50 [19] of 0.539 µM, a TGI [19] of 4.25 µM and a GI50 [20] of 8.51 µM. It also gave a TGI [20] greater than 100 µM, a GI50 [21] of 1.49 µM and a TGI [21] of 6.54 µM. The GI50 [22] was 2.9 µM, the TGI [22] was 27.9 µM and the GI50 [23] was 4.36 µM. For the same compound, the TGI [23] was greater than 100 µM, the GI50 [24] was 1.76 µM and the TGI [24] was 10.4 µM. For the same compound, the GI50 [25] was 1.18 µM, the TGI [25] was 13 µM and the GI50 [26] was 0.964 µM. It also gave a TGI [26] greater than 100 µM, a GI50 [27] of 2.3 µM and a TGI [27] of 31.3 µM. The GI50 [28] was 2.31 µM, the TGI [28] was 49.5 µM and the GI50 [29] was 0.161 µM. The TGI [29] was 0.542 µM, the GI50 [30] was 0.158 µM and the TGI [30] was 0.725 µM. The GI50 [31] was 4.22 µM, the TGI [31] was greater than 100 µM and the GI50 [32] was 1.15 µM. It also gave a TGI [32] of 6.68 µM, a GI50 [33] of 0.229 µM and a TGI [33] greater than 100 µM. For the same compound, the GI50 [34] was 2.3 µM, the TGI [34] was 15 µM and the GI50 [35] was 1.75 µM. For the same compound, the TGI [35] was 11 µM, the GI50 [36] was 0.651 µM and the TGI [36] was 10.2 µM. For the same compound, the GI50 [37] was 1.1 µM, the TGI [37] was 11.6 µM and the GI50 [38] was 1.59 µM. The TGI [38] was 8.1 µM, the GI50 [39] was 1.18 µM and the TGI [39] was 26.6 µM. The GI50 [40] was 8.96 µM, the TGI [40] was greater than 100 µM and the GI50 [41] was 2.69 µM. The TGI [41] was 10.3 µM, the GI50 [42] was 0.36 µM and the TGI [42] was 4.38 µM. The GI50 [43] was 11.3 µM, the TGI [43] was 23.8 µM and the GI50 [44] was 1.17 µM. It also gave a TGI [44] of 5.36 µM, a GI50 [45] of 3.09 µM and a TGI [45] of 67.5 µM. The GI50 [46] was 0.426 µM, the TGI [46] was 21.5 µM and the GI50 [47] was 0.39 µM. The TGI [47] was 13 µM, the GI50 [48] was 1.16 µM and the TGI [48] was 4.99 µM. It also gave a GI50 [49] of 1.44 µM, a TGI [49] of 26.8 µM and a GI50 [50] of 0.941 µM. It also gave a TGI [50] greater than 100 µM, a GI50 [51] of 1.25 µM and a TGI [51] of 5.75 µM. It also gave a GI50 [52] of 3.13 µM, a TGI [52] of 27 µM and a GI50 [53] of 0.293 µM. It also gave a TGI [53] of 1.25 µM, a GI50 [54] of 2.45 µM and a TGI [54] of 17 µM. The GI50 [55] was 3.33 µM, the TGI [55] was 19.5 µM and the GI50 [56] was 0.727 µM. The TGI [56] was 15.6 µM, the GI50 [57] was 1 µM and the TGI [57] was 8.38 µM. For the same compound, the GI50 [58] was 0.919 µM and the TGI [58] was 15.8 µM.
